The record followed here is patent publication US8966812B2, “Trap for bed bugs and the like” (Susan McKnight, Inc., priority 2007, dated 2015).

Type in all cases: in vivo, cimex lectularius
In test [1] the test system is bed bugs. The experiment in a line: Example 2: climb-up pitfall trap with heat source and lures incl. experimental lure composition, infested apartment building, 14 days. As to conditions: trap with heat source plus lure, tested several times for 14 days, FIG. 6. From the text:
A molded polypropylene dog dish was turned upside down to form climb-up pitfall trap 1 as described in Example 1. The exterior surface 2 was covered with Pellon® featherweight fusible interfacing to form a climbing surface. […] The trap 1 was positioned on the floor of an apartment building known to be infested by bed bugs. As indicated in the bar chart of FIG. 6, the trap 1 was loaded with a heat blanket (heat source 8). The heat blanket generated temperatures of 44.8 to 47.3 degrees Celsius (112.6 to 117.1 degrees Fahrenheit). The trap with heat source 8 was tested several times for 14 days with a modest mean trap count. This test served as a control test. The trap was then loaded with an octenol lure without L-lactic acid. The heat blanket again generated heat. […] The trap was then loaded with an octenol and L-lactic acid lure, in place of the octenol lure. The heat blanket again generated heat. […] The trap was then loaded with an experimental lure consisting of a combination of 100 micrograms of L-lactic acid, 33 micrograms of propionic acid, 0.33 micrograms of butyric acid, 0.33 micrograms of valeric acid and 100 micrograms of octenol (lure composition 10), the experimental lure being combined in a fragrance releasing gel. The heat blanket again generated heat. […]

The test system of test [2] is bed bugs. The experiment in a line: Example 1: climb-up pitfall trap with heat source and lures in an infested apartment building, 14 days. To be noted: trap with heat source 44.8 to 47.3 degrees Celsius plus lure, FIG. 5. The text has this: The exterior surface 2 was covered with cloth, the cloth being attached by masking tape, to form a climbing surface. Precipice 3 was formed by the outer edge of the dog dish. Interior surface 4 was formed by the underside of the outer rim of the dog dish which faces upward when the dog dish is turned upside down. Receptacle 5 was formed along the inside of the precipice 3 by the interior surface 4 and the retaining surface 6, effectively forming a capture moat area. The retaining surface 6 was formed by the underside of the inner bowl walls of the dog dish. Center stage 7 was formed by the underside of the bowl portions of the dog dish. The trap 1 was positioned on the floor of an apartment building known to be infested by bed bugs. Referring to the chronological chart of FIG. 5, the trap 1 was initially loaded with a heat blanket (heat source 8) alone. The heat blanket generated temperatures of 44.8 to 47.3 degrees Celsius (112.6 to 117.1 degrees Fahrenheit). The trap 1 with heat source 8 was tested for 14 days. The trap 1 was then loaded with an octenol lure in addition to the heat source 8, but excluding lactic acid. The heat blanket again generated heat. The trap 1 was then loaded with an octenol and L-lactic acid lure as described above, in place of the octenol lure. The heat blanket again generated heat.

Test [3] concerns bed bugs. As to the kind of experiment: Example 3: carbon dioxide synergism with experimental lure composition, climb-up pitfall trap in infested apartment building, 14 days. Here is the method:
A molded polypropylene dog dish was turned upside down to form the climb-up pitfall trap 1 as described in Example 2. The trap 1 was positioned on the floor of an apartment building known to be infested by bed bugs, and was tested without any lure. This served as the control test illustrated as Test 6 in FIG. 7. The trap was loaded with a heat blanket (heat source 8). The heat blanket generated temperatures of 44.8 to 47.3 degrees Celsius (112.6 to 117.1 degrees Fahrenheit). The trap 1 with heat source 8 was tested with results shown as Test 2 in FIG. 7. The trap was then loaded with a flexible tube connected to a 5 lbs. compressed carbon dioxide cylinder (carbon dioxide source 9). The carbon cylinder emitted 500 ml/min of carbon dioxide through a tube to the area over the center stage 7 of the trap. The trap with carbon dioxide source 9 was tested with the results shown as Test 4 in FIG. 7. The trap was then loaded with an experimental lure comprising: 100 micrograms of L-lactic acid, 33 micrograms of propionic acid, 0.33 micrograms of butyric acid, 0.33 micrograms of valeric acid and 100 micrograms of octenol (i.e., “lure composition 10”), the experimental lure being combined in a fragrance releasing gel. The trap with experimental lure (lure composition 10) was tested with the results indicated in Test 5 of FIG. 7. […]

`C=CC(O)CCCCC` (stereo not shown) [octenol lure, 1-octen-3-ol]: the “mean trap count compared with other traps” value in test [1] is “less effective results than heat alone”. Also, the “bed bugs caught compared with control test (trap with heat source alone)” value in test [2] is listed as “caught more bugs”.

As for `O=C=O` [carbon dioxide source 9, carbon dioxide], the “number of bed bugs caught, times the control (trap only)” value in test [3] (carbon dioxide 500 ml/min alone, Test 4 of FIG. 7) is about 3 times. In addition, in test [3] (heat source plus carbon dioxide 500 ml/min, Test 3 of FIG. 7), the “number of bed bugs caught, times the control test (trap only)” value is about 4 times.
